Laboratory results as given in patent publication US20250388584A1, “TPK AGONIST AND METHOD FOR TREATING NEURODEGENERATIVE DISEASES USING SAME” (SHANGHAI RAISING PHARMACEUTICAL CO., LTD., priority 2022, published 2025).
Read-outs that look alike come from different tables or passages of the source.

Target: TPK enzyme (Homo sapiens (Human), UniProt Q9H3S4)
Experiment: TPK enzyme activity test
Format: biochemical
Conditions: for Emax: calculated with the effect of DMSO on TPK enzyme activity as 100%; for EC50: promoting effect on TPK enzyme activity

TPK enzyme, sequence (Q9H3S4 whole entry): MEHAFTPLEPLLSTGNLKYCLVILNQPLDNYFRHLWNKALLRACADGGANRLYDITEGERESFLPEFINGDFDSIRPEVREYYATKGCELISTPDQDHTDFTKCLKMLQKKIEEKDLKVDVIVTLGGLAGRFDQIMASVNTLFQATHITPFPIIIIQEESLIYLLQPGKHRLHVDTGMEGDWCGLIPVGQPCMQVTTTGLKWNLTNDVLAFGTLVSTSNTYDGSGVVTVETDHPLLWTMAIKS

SMILES | Emax (read-out: Emax) [%] | EC50 [µM] | Emax [%]
O=C(CCCn1cnc2c(c1=O)CCCc1ccccc1-2)N1CCN(c2cccc(C(F)(F)F)c2)CC1 [Compound 228, 3-(4-oxo-4-(4-(3-(trifluoromethyl)phenyl)piperazin-1-yl)butyl)-3,5,6,7-tetrahydro-4H-benzo[6,7]cyclohepta[1,2-d]pyrimidin-4-one] | 148 | 2.13 | 
Cc1ccc(C)c(N2CCN(C(=O)CCn3cnc4c([nH]c5ccc(C)cc54)c3=O)CC2)c1 [Compound 34] | 167 | 1.37 | 
COc1ccccc1N1CCN(C(=O)CCn2cnc3c([nH]c4ccc(C)cc43)c2=O)CC1 [Compound 47] | 135 |  | 
Cc1ccc2c(c1)-c1ncn(CCC(=O)N3CCN(c4cccc(C(F)(F)F)c4)CC3)c(=O)c1CC2 [Compound 215, 9-methyl-3-(3-oxo-3-(4-(3-(trifluoromethyl)phenyl)piperazin-1-yl)propyl)-5,6-dihydrobenzo[h]quinazolin-4(3H)-one] | 173 | 1.13 | 
Cc1ccc2[nH]c3c(=O)n(CCC(=O)N4CCN(c5cc(Cl)ccc5C)CC4)cnc3c2c1 [Compound 42] | 156 | 3.96 | 
Cc1ccc2oc3c(=O)n(CCC(=O)NCc4cccc(C(F)(F)F)c4)cnc3c2c1 [Compound 87, 3-(8-methyl-4-oxobenzofuro[3,2-d]pyrimidin-3(4H)-yl)-N-(3-(trifluoromethyl)benzyl)propanamide] | 146 |  | 
Cc1ccc2[nH]c3c(=O)n(CCC(=O)NCc4cn5ccccc5n4)cnc3c2c1 [Compound 134, N-(imidazo[1,2-a]pyridin-2-ylmethyl)-3-(8-methyl-4-oxo-4,5-dihydro-3H-pyrimido[5,4-b]indol-3-yl)propanamide] | 125 |  | 
O=C(CCn1cnc2c([nH]c3ccc(C(F)(F)F)cc32)c1=O)N1CCN(Cc2cccc(C(F)(F)F)c2)CC1 [Compound 53, 3-(3-oxo-3-(4-(3-(trifluoromethyl)benzyl)piperazin-1-yl)propyl)-8-(trifluoromethyl)-3,5-dihydro-4H-pyrimido[5,4-b]indol-4-one] | 162 | 1.58 | 
Cc1ccc2[nH]c3c(=O)n(CCC(=O)NCCCc4cccc(C(F)(F)F)c4)cnc3c2c1 [Compound 69, 3-(8-methyl-4-oxo-4,5-dihydro-3H-pyrimido[5,4-b]indol-3-yl)-N-(3-(3-(trifluoromethyl)phenyl)propyl)propanamide] | 168 |  | 
COc1ccc2[nH]c(=O)c3c(ccn3CCCN3CCN(c4cccc(C(F)(F)F)c4)CC3)c2c1 [Compound 210, 8-methoxy-3-(3-(4-(3-(trifluoromethyl)phenyl)piperazin-1-yl)propyl)-3,5-dihydro-4H-pyrrolo[2,3-c]quinolin-4-one] | 166 | 1.8 | 
O=C(CCn1cnc2c([nH]c3ccc(F)cc32)c1=O)N1CCN(c2cccc(C(F)(F)F)c2)CC1 [Compound 153, 8-fluoro-3-(3-oxo-3-(4-(3-(trifluoromethyl)phenyl)piperazin-1-yl)propyl)-3,5-dihydro-4H-pyrimido[5,4-b]indol-4-one] |  | 3.17 | 130.73
COc1ccc2c(c1)N1CCN(c3ccc(C)cc3)CC1C(C(=O)Nc1ccccc1)C2 (stereo not shown) [Compound 140] | 187 |  | 
O=C(CCn1cnc2c([nH]c3ccccc32)c1=O)N1CCN(c2cccc(C(F)(F)F)c2)CC1 [Compound 5, 3-(3-oxo-3-(4-(3-(trifluoromethyl)phenyl)piperazin-1-yl)propyl)-3,5-dihydro-4H-pyrimido[5,4-b]indol-4-one] | 139 | 2.29 | 
O=C(N[C@@H](Cc1ccc(F)cc1)C(=O)O)OCC1c2ccccc2-c2ccccc21 [Compound 141] | 204 | 4.07 | 
Cc1cccc2c1[nH]c1c(=O)n(CCC(=O)N3CCN(c4cccc(C(F)(F)F)c4)CC3)cnc12 [Compound 23, 6-methyl-3-(3-oxo-3-(4-(3-(trifluoromethyl)phenyl)piperazin-1-yl)propyl)-3,5-dihydro-4H-pyrimido[5,4-b]indol-4-one] | 121 |  | 
Cc1ccc2c(c1)[nH]c1c(=O)n(CCC(=O)N3CCN(c4c(Cl)cccc4Cl)CC3)cnc12 [Compound 20, 3-(3-(4-(2,6-dichlorophenyl)piperazin-1-yl)-3-oxopropyl)-7-methyl-3,5-dihydro-4H-pyrimido[5,4-b]indol-4-one] | 121 |  | 
Cc1ccc2nc3c(=O)n(CCC(=O)N4CCN(c5cccc(C(F)(F)F)c5)CC4)cnc3cc2c1 [Compound 138, 8-methyl-3-(3-oxo-3-(4-(3-(trifluoromethyl)phenyl)piperazin-1-yl)propyl)pyrimido[5,4-b]quinolin-4(3H)-one] | 146 | 1.16 | 
CC(C)c1ccc(CNC(=O)CCn2cnc3c([nH]c4ccc(F)cc43)c2=O)cc1 [Compound 118] | 122 |  | 
Cc1ccc2[nH]c3c(=O)n(CCC(=O)N4CCN(c5ccc(Cl)c(Cl)c5)CC4)cnc3c2c1 [Compound 9, 3-(3-(4-(3,4-dichlorophenyl)piperazin-1-yl)-3-oxopropyl)-8-methyl-3,5-dihydro-4H-pyrimido[5,4-b]indol-4-one] | 147 | 0.768 | 

SMILES | Emax (read-out: Emax) [%] | EC50 [µM] | Emax [%]
Cc1ccc2[nH]c3c(=O)n(CCC(=O)N4CCN(c5cccc(S(=O)(=O)N6CCCCC6)c5)CC4)cnc3c2c1 [Compound 170, 8-methyl-3-(3-oxo-3-(4-(3-(piperidin-1-ylsulfonyl)phenyl)piperazin-1-yl)propyl)-3,5-dihydro-4H-pyrimido[5,4-b]indol-4-one] | 151 | 2.37 | 
COc1ccc2[nH]c(=O)c3c(c2c1)CN(CCCN1CCN(c2cccc(Cl)c2Cl)CC1)C3 [Compound 235, 2-(3-(4-(2,3-dichlorophenyl)piperazin-1-yl)propyl)-8-methoxy-1,2,3,5-tetrahydro-4H-pyrrolo[3,4-c]quinolin-4-one] | 137 | 0.572 | 
O=C1CCCCN1CCCN1CCSc2ccc(C(F)(F)F)cc21 [Compound 194, 1-(3-(6-(trifluoromethyl)-2,3-dihydro-4H-benzo[b][1,4]thiazin-4-yl)propyl)piperidin-2-one] | 139 |  | 
O=C(CCn1cnc2c(oc3ccc(F)cc32)c1=O)N1CCN(c2cccc(C(F)(F)F)c2)CC1 [Compound 148, 8-fluoro-3-(3-oxo-3-(4-(3-(trifluoromethyl)phenyl)piperazin-1-yl)propyl)benzofuro[3,2-d]pyrimidin-4 (3H)-one] | 151 | 1.99 | 
Cc1ccc2c(c1)-c1nc(=O)n(CCCC(=O)N3CCC(Cc4ccc(F)cc4)CC3)cc1CO2 [Compound 220, 3-(4-(4-(4-fluorobenzyl)piperidin-1-yl)-4-oxobutyl)-9-methyl-3,5-dihydro-2H-chromeno[4,3-d]pyrimidin-2-one] | 157 | 3.89 | 
Cc1ccc2ncc3c(=O)n(CCCC(=O)N4CCN(c5cccc(Cl)c5Cl)CC4)cnc3c2c1 [Compound 217, 3-(4-(4-(2,3-dichlorophenyl)piperazin-1-yl)-4-oxobutyl)-9-methylpyrimido[5,4-c]quinolin-4(3H)-one] | 153 | 1.47 | 
COc1cccc(N2CCN(C(=O)Cn3cnc4c([nH]c5ccc(C)cc54)c3=O)CC2)c1 [Compound 45] | 158 | 1.22 | 
COc1cccc(N2CCN(C(=O)CCn3cnc4c([nH]c5ccc(C)cc54)c3=O)CC2)c1 [Compound 43] | 137 |  | 
O=C1c2ccccc2CN1CCCN1CCSc2ccc(C(F)(F)F)cc21 [Compound 197, 2-(3-(6-(trifluoromethyl)-2,3-dihydro-4H-benzo[b][1,4]thiazin-4-yl)propyl)isoindolin-1-one] | 132 |  | 
O=C1CCCCN1CCCCCCN1CCSc2ccc(C(F)(F)F)cc21 [Compound 193, 1-(6-(6-(trifluoromethyl)-2,3-dihydro-4H-benzo[b][1,4]thiazin-4-yl)hexyl)piperidin-2-one] | 178 | 7.49 | 
Cc1ccc2[nH]c3c(=O)n(CCC(=O)N(C)CCNc4cccc(C(F)(F)F)c4)cnc3c2c1 [Compound 91, N-methyl-3-(8-methyl-4-oxo-4,5-dihydro-3H-pyrimido[5,4-b]indol-3-yl)-N-(2-((3-(trifluoromethyl)phenyl)amino)ethyl)propanamide] | 140 | 3.72 | 
O=C(CCn1cnc2c([nH]c3ccc(F)cc32)c1=O)N1CCN(c2cccc(C(F)(F)F)c2)CC1 [Compound 39] | 139 |  | 
O=C1CCCCN1CCCCCCN1C(=O)CSc2ccc(C(F)(F)F)cc21 [Compound 195, 4-(6-(2-oxopiperidin-1-yl)hexyl)-6-(trifluoromethyl)-2H-benzo[b][1,4]thiazin-3(4H)-one] | 136 |  | 
Cc1ccc2[nH]c3c(=O)n(CCC(=O)N4CCN(c5cccc(Br)c5)CC4)cnc3c2c1 [Compound 18, 3-(3-(4-(3-bromophenyl)piperazin-1-yl)-3-oxopropyl)-8-methyl-3,5-dihydro-4H-pyrimido[5,4-b]indol-4-one] | 159 |  | 
O=C(CCn1cnc2c(oc3ccc(F)cc32)c1=O)N1CCC(O)(c2cccc(C(F)(F)F)c2)CC1 [Compound 151, 8-fluoro-3-(3-(4-hydroxy-4-(3-(trifluoromethyl)phenyl)piperidin-1-yl)-3-oxopropyl)benzofuro[3,2-d]pyrimidin-4(3H)-one] | 189 | 5.98 | 
O=C(O)CCC(=O)OCCN1CCN(CCC(=O)N2c3ccccc3Sc3ccc(C(F)(F)F)cc32)CC1 [Compound 199] | 204 | 0.49 | 
Cc1ccc2[nH]c3c(=O)n(CCC(=O)NCc4cccc(O)c4)cnc3c2c1 [Compound 82, N-(3-hydroxybenzyl)-3-(8-methyl-4-oxo-4,5-dihydro-3H-pyrimido[5,4-b]indol-3-yl)propanamide] | 123 |  | 
Cc1ccc2c(c1)-c1nc(=O)n(CCC(=O)N3CCN(c4cccc(Cl)c4Cl)CC3)cc1CO2 [Compound 214] |  | 2.38 | 137.60
Cc1ccc2[nH]c3c(=O)n(CCC(=O)NCc4cccc(C(F)(F)F)c4)ccc3c2c1 [Compound 67, 3-(6-methyl-1-oxo-1,9-dihydro-2H-pyrido[3,4-b]indol-2-yl)-N-(3-(trifluoromethyl)benzyl)propanamide] | 187 | 1.2 | 
